Laboratory results published in patent US7803816B2, “MCH receptor antagonists” (Hoffmann-La Roche Inc., priority 2005, dated 2010).
Counter-ions that a name gives are not always drawn.

Biological target: T1, recombinant human MCHR1-receptors (Homo sapiens, UniProt Q99705)
T1 construct: expressed in transfected cells
Experiment: MCHR filter binding assay (competition binding)
Details: membranes from CHO-K1 cells expressing human MCHR1; 0.2 nM [Phe13,[125I]Tyr19]-MCH; read-out: IC50 (nM), in vitro activity (binding assay)
Outline: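 Membranes from CHO-K1 cells stably expressing human MCHR1 (2.8 μg) preincubated 15 min with competitor, then 1 h at rt with 0.2 nM [Phe13,[125I]Tyr19]-MCH in HEPES/CaCl2/BSA/phenanthroline/Triton buffer. Bound radioactivity counted after rapid filtration over PVP/BSA-treated GF/B filters.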

T1 sequence (Q99705 whole entry): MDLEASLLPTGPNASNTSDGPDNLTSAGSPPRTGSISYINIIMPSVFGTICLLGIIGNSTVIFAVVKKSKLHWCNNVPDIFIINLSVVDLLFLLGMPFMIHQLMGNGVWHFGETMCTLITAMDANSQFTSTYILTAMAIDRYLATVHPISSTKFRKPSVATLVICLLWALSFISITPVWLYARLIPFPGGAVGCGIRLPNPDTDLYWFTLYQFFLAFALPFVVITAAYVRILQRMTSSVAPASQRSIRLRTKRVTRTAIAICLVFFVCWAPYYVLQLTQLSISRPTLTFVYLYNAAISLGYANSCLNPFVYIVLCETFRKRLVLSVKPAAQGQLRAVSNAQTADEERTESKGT

Compound	IC50 [nM]
CO[C@@H]1CN(C[C@@H]2Cc3ccc(Br)cc3C2)CC[C@H]1n1c(C)nc2cc(C)ccc21 [Example 87, 1-[(3R,4R)-1-((R)-5-Bromo-indan-2-ylmethyl)-3-methoxy-piperidin-4-yl]-2,5-dimethyl-1H-benzoimidazole; dihydrochloride]	20 to 200
Cc1ccc2c(c1)nc(C)n2[C@@H]1CCN(C[C@H]2Cc3ccc(NC(=O)C4CC4)cc3C2)C[C@H]1O [Example 88, Cyclopropanecarboxylic acid {(S)-2-[(3R,4R)-4-(2,5-dimethyl-benzoimidazol-1-yl)-3-hydroxy-piperidin-1-ylmethyl]-indan-5-yl}-amide]	20 to 200
CO[C@@H]1CN(C[C@@H]2Cc3ccc(Br)cc3C2)CC[C@H]1n1c(C(C)C)nc2cc(C)ccc21 [Example 89, 1-[(3R,4R)-1-((R)-5-Bromo-indan-2-ylmethyl)-3-methoxy-piperidin-4-yl]-2-isopropyl-5-methyl-1H-benzoimidazole]	20 to 200
CO[C@H]1CN(C[C@@H]2Cc3ccc(Br)cc3C2)CC[C@@H]1n1c(C(C)C)nc2cc(C)ccc21 [Example 90, 1-[(3S,4S)-1-((R)-5-Bromo-indan-2-ylmethyl)-3-methoxy-piperidin-4-yl]-2-isopropyl-5-methyl-1H-benzoimidazole]	200 to 5000
CO[C@H]1CN(C[C@H]2Cc3ccc(Br)cc3C2)CC[C@@H]1n1c(C)nc2cc(C)ccc21 [Example 91, 1-[(3S,4S)-1-((S)-5-Bromo-indan-2-ylmethyl)-3-methoxy-piperidin-4-yl]-2,5-dimethyl-1H-benzoimidazole; dihydrochloride]	20 to 200
COc1ccc2c(c1)CC(CN1CC[C@H](n3c(C)nc4cc(C)ccc43)[C@@H](OC)C1)C2 (stereo partly drawn) [Example 92, 1-[(3S,4S)-3-Methoxy-1-(5-methoxy-indan-2-ylmethyl)-piperidin-4-yl]-2,5-dimethyl-1H-benzoimidazole; dihydrochloride]	20 to 200
COc1ccc2c(c1)CC(CN1CC[C@H](n3c(C(C)C)nc4cc(C)ccc43)[C@@H](OC)C1)C2 (stereo partly drawn) [Example 93, 2-Isopropyl-1-[(3S,4S)-3-methoxy-1-(5-methoxy-indan-2-ylmethyl)-piperidin-4-yl]-5-methyl-1H-benzoimidazole dihydrochloride]	20 to 200
CO[C@H]1CN(CC2Cc3cc(Cl)c(Cl)cc3C2)CC[C@@H]1n1c(C)nc2cc(C)ccc21 [Example 94, 1-[(3S,4S)-1-(5,6-Dichloro-indan-2-ylmethyl)-3-methoxy-piperidin-4-yl]-2,5-dimethyl-1H-benzoimidazole; dihydrochloride]	200 to 5000
CO[C@H]1CN(CC2Cc3cc(Cl)c(Cl)cc3C2)CC[C@@H]1n1c(C(C)C)nc2cc(C)ccc21 [Example 95, 1-[(3S,4S)-1-(5,6-Dichloro-indan-2-ylmethyl)-3-methoxy-piperidin-4-yl]-2-isopropyl-5-methyl-1H-benzoimidazole; dihydrochloride]	200 to 5000
Cc1ccc2c(c1)nc(C(C)(C)O)n2C1CCN(C[C@@H]2Cc3ccc(Br)cc3C2)CC1 [Example 96, 2-{1-[1-((R)-5-Bromo-indan-2-ylmethyl)-piperidin-4-yl]-5-methyl-1H-benzoimidazol-2-yl}-propan-2-ol]	20 to 200
CO[C@@H]1CN(CC2Cc3cccc(Cl)c3C2)CC[C@H]1n1c(C)nc2cc(C)ccc21 (stereo partly drawn) [Example 97, 1-[(3R,4R)-1-(4-Chloro-indan-2-ylmethyl)-3-methoxy-piperidin-4-yl]-2,5-dimethyl-1H-benzoimidazole]	20 to 200
CO[C@@H]1CN(CC2Cc3ccc(C(C)C)cc3C2)CC[C@H]1n1c(C(C)C)nc2cc(C)ccc21 (stereo partly drawn) [Example 98, 2-Isopropyl-1-[(3R,4R)-1-(5-isopropyl-indan-2-ylmethyl)-3-methoxy-piperidin-4-yl]-5-methyl-1H-benzoimidazole]	200 to 5000
Cc1ccc2c(c1)nc(C(C)(C)O)n2C1CCN(C[C@H]2Cc3ccc(Br)cc3C2)CC1 [Example 99, 2-{1-[1-((S)-5-Bromo-indan-2-ylmethyl)-piperidin-4-yl]-5-methyl-1H-benzoimidazol-2-yl}-propan-2-ol]	< 20
CO[C@H]1CN(CC2Cc3cc(F)c(F)cc3C2)CC[C@@H]1n1c(C(C)C)nc2cc(C)ccc21 [Example 100, 1-[(3S,4S)-1-(5,6-Difluoro-indan-2-ylmethyl)-3-methoxy-piperidin-4-yl]-2-isopropyl-5-methyl-1H-benzoimidazole]	20 to 200
CO[C@H]1CN(CC2Cc3cc(F)c(F)cc3C2)CC[C@@H]1n1c(C)nc2cc(C)ccc21 [Example 101, 1-[(3S,4S)-1-(5,6-Difluoro-indan-2-ylmethyl)-3-methoxy-piperidin-4-yl]-2,5-dimethyl-1H-benzoimidazole]	20 to 200
Cc1ccc2c(c1)ncn2C1CCN(CC2Cc3cccc(Cl)c3C2)CC1 (centres unmarked) [Example 102, 1-[1-(4-Chloro-indan-2-ylmethyl)-piperidin-4-yl]-5-methyl-1H-benzoimidazole; compound with trifluoroacetic acid]	200 to 5000

Compound	IC50 [nM]
Cc1ccc2c(c1)nc(C(C)(C)O)n2C1CCN(CC2Cc3cccc(Cl)c3C2)CC1 (centres unmarked) [Example 103, 2-{1-[1-(4-Chloro-indan-2-ylmethyl)-piperidin-4-yl]-5-methyl-1H-benzoimidazol-2-yl}-propan-2-ol; compound with trifluoroacetic acid]	20 to 200
CO[C@@H]1CN(CC2Cc3ccc(C(C)C)cc3C2)CC[C@H]1n1c(C)nc2cc(C)ccc21 (stereo partly drawn) [Example 104, 1-[(3R,4R)-1-(5-Isopropyl-indan-2-ylmethyl)-3-methoxy-piperidin-4-yl]-2,5-dimethyl-1H-benzoimidazole]	200 to 5000
Cc1ccc2c(c1)CC(CN1CCC(n3c(C(C)(C)F)nc4cc(C)ccc43)CC1)C2 (centres unmarked) [Example 105, 2-(1-Fluoro-1-methyl-ethyl)-5-methyl-1-[1-(5-methyl-indan-2-ylmethyl)-piperidin-4-yl]-1H-benzoimidazole]	200 to 5000
Cc1cc2ncn(C3CCN(CC4Cc5ccc(F)cc5C4)CC3)c2cc1F (centres unmarked) [Example 106, 6-Fluoro-1-[1-(5-fluoro-indan-2-ylmethyl)-piperidin-4-yl]-5-methyl-1H-benzoimidazole]	20 to 200
CO[C@@H]1CN(CC2Cc3ccccc3C2)CC[C@H]1n1c(C(C)(C)O)nc2cc(C)ccc21 [Example 107, 2-[1-((3R,4R)-1-Indan-2-ylmethyl-3-methoxy-piperidin-4-yl)-5-methyl-1H-benzoimidazol-2-yl]-propan-2-ol]	20 to 200
CO[C@@H]1CN(C[C@H]2Cc3ccc(F)cc3C2)CC[C@H]1n1c(C(C)(C)O)nc2cc(C)ccc21 [Example 108, 2-{1-[(3R,4R)-1-((S)-5-Fluoro-indan-2-ylmethyl)-3-methoxy-piperidin-4-yl]-5-methyl-1H-benzoimidazol-2-yl}-propan-2-ol]	20 to 200
CO[C@@H]1CN(C[C@@H]2Cc3ccc(F)cc3C2)CC[C@H]1n1c(C(C)(C)O)nc2cc(C)ccc21 [Example 109, 2-{1-[(3R,4R)-1-((R)-5-Fluoro-indan-2-ylmethyl)-3-methoxy-piperidin-4-yl]-5-methyl-1H-benzoimidazol-2-yl}-propan-2-ol]	20 to 200
CO[C@@H]1CN(CC2Cc3ccc(C)cc3C2)CC[C@H]1n1c(C(C)(C)O)nc2cc(F)ccc21 (stereo partly drawn) [Example 110, 2-{5-Fluoro-1-[(3R,4R)-3-methoxy-1-(5-methyl-indan-2-ylmethyl)-piperidin-4-yl]-1H-benzoimidazol-2-yl}-propan-2-ol]	20 to 200
CO[C@@H]1CN(C[C@H]2Cc3ccc(Br)cc3C2)CC[C@H]1n1c(C(C)(C)O)nc2cc(F)ccc21 [Example 111, 2-{1-[(3R,4R)-1-((S)-5-Bromo-indan-2-ylmethyl)-3-methoxy-piperidin-4-yl]-5-fluoro-1H-benzoimidazol-2-yl}-propan-2-ol]	20 to 200
CO[C@@H]1CN(C[C@H]2Cc3ccc(Cl)cc3C2)CC[C@H]1n1c(C(C)(C)O)nc2cc(C)ccc21 [Example 112, 2-{1-[(3R,4R)-1-((S)-5-Chloro-indan-2-ylmethyl)-3-methoxy-piperidin-4-yl]-5-methyl-1H-benzoimidazol-2-yl}-propan-2-ol]	20 to 200
CO[C@@H]1CN(C[C@@H]2Cc3ccc(Cl)cc3C2)CC[C@H]1n1c(C(C)(C)O)nc2cc(C)ccc21 [Example 113, 2-{1-[(3R,4R)-1-((R)-5-Chloro-indan-2-ylmethyl)-3-methoxy-piperidin-4-yl]-5-methyl-1H-benzoimidazol-2-yl}-propan-2-ol]	< 20
Cc1ccc2c(c1)CC(CN1CC[C@@H](n3c(C(C)(C)O)nc4cc(C)ccc43)[C@H](O)C1)C2 (stereo partly drawn) [Example 114, (3R,4R)-4-[2-(1-Hydroxy-1-methyl-ethyl)-5-methyl-benzoimidazol-1-yl]-1-(5-methyl-indan-2-ylmethyl)-piperidin-3-ol]	20 to 200
CO[C@@H]1CN(C[C@@H]2Cc3ccc(Br)cc3C2)CC[C@H]1n1c(C(C)(C)O)nc2cc(C)ccc21 [Example 115, 2-{1-[(3R,4R)-1-((R)-5-Bromo-indan-2-ylmethyl)-3-methoxy-piperidin-4-yl]-5-methyl-1H-benzoimidazol-2-yl}-propan-2-ol]	20 to 200
CO[C@H]1CN(C[C@@H]2Cc3ccc(Br)cc3C2)CC[C@@H]1n1c(C(C)(C)O)nc2cc(C)ccc21 [Example 116, 2-{1-[(3S,4S)-1-((R)-5-Bromo-indan-2-ylmethyl)-3-methoxy-piperidin-4-yl]-5-methyl-1H-benzoimidazol-2-yl}-propan-2-ol]	20 to 200
CO[C@@H]1CN(CC2Cc3ccc(C)cc3C2)CC[C@H]1n1c(C(C)(C)O)nc2cc(C)ccc21 (stereo partly drawn) [Example 117, 2-{1-[(3R,4R)-3-Methoxy-1-(5-methyl-indan-2-ylmethyl)-piperidin-4-yl]-5-methyl-1H-benzoimidazol-2-yl}-propan-2-ol]	20 to 200

Same assay, conditions: membranes from CHO-K1 cells expressing human MCHR1; 0.2 nM [Phe13,[125I]Tyr19]-MCH; read-out: IC50 (nM), selected in vitro MCH-R binding data

Compound	IC50 [nM]
Cc1cc2ncn(C3CCN(CC4Cc5ccc(F)cc5C4)CC3)c2cc1F (centres unmarked) [Example 106, 6-Fluoro-1-[1-(5-fluoro-indan-2-ylmethyl)-piperidin-4-yl]-5-methyl-1H-benzoimidazole]	194
